# Patent US11078250B2, “High-activity long-acting hypoglycemic fusion protein as well as preparation method and medical application thereof” (China Pharmaceutical University, priority 2016, dated 2021)
# Values joined by “and” are separate entries in the source; they are usually repeats but may differ in a detail not shown here. Identical values can stand only once.
# Assays:
# [1] = system: type II diabetic mice C57BL/KsJ-db/db (BKS.Cg-Dock7m+/+Leprdb/JNju); assay: Acute hypoglycemic test in type II diabetic model mice; type: in vivo, mouse
# Protocol: (§1) 50 six-week-old type II diabetic mice C57BL/KsJ-db/db (namely, S.Cg-Dock7^m+/+Lepr^db/JNju mouse) and 10 control mice C57BLKS/JNju are purchased from Nanjing Biomedical Research Institute of Nanjing University (certificate number: 201602819, and license number: SCXK (Su) 2015-0001). The mouse are fed in a SPF-grade animal house with a humidity of 40-60% at room temperature of 25° C. for 12 h each under light and dark conditions, and an experiment is carried out after adaptive feeding for one week. Blood glucose concentration is measured using a Roche Accu-Chek® Performa glucometer and blood glucose test paper. Experiment grouping and administration modes are seen in Table 1.
# Blood glucose levels of each group of mouse are detected before administration. As shown in Table 2 and FIG. 7, blood glucose levels of a model group, Ex-4, EX-mhIgG1Fc and EX-L21K-mhIgG1Fc (5-20 nmol/kg) are respectively 24±0.81, 24.53±1.20, 23.31±1.05, 23.04±1.23, 22.41±1.51 and 24.99±1.43 mM. There is a significant difference (P<0.0001) compared with 8.58±0.25 mM in a normal control group. […] Moreover, there is no difference between the drug groups and the model group, and subsequent experiments can be carried out.
# After mouse are administrated, blood glucose levels after administration for 1, 2, 4, 8, 12, 24, 36, 48, 60, 72, 96 and 120 h are continuously monitored. […] The blood glucoses of mouse in Ex-4 group are gradually raised back to a level before administration, and the blood glucoses of mouse in EX-mhIgG1Fc group are gradually raised back to a level before administration after administration for 48 h. The hypoglycemic effects of various dosage group of EX-L21K-mhIgG1Fc are more durable, wherein, the hypoglycemic effect of 5 nmol/kg EX-L21K-mhIgG1Fc lasts until 72 h after administration (P<0.01 vs model group), the hypoglycemic effects of 10 nmol/kg EX-L21K-mhIgG1Fc (P<0.01 vs model group) and 20 nmol/kg EX-L21K-mhIgG1Fc (P<0.0001 vs model group) are still present after administration for 96 h.
# Compared with Ex-4, AUCs0-24 h of various groups of EX-mhIgG1Fc and EX-L21K-mhIgG1Fc (5-20 nmol/kg) drugs has no significant difference.
# [2] = system: type II diabetic mice C57BL/KsJ-db/db (BKS.Cg-Dock7m+/+Leprdb/JNju); assay: Intraperitoneal glucose tolerance test (IPGTT); type: in vivo, mouse; settings: for IPGTT glucose AUC0-180 min: n=8, mean ± SEM; for Fasting blood glucose vs model group: fasted 18 h, Ex-4 and EX-mhIgG1Fc 10 nmol/kg, EX-L21K-mhIgG1Fc 5-20 nmol/kg, ip, P<0.0001
# Protocol: as §1
# Various groups of animals are fasted overnight for 18 h before test. Firstly, normal saline, Ex-4, EX-mhIgG1Fc and EX-L21K-mhIgG1Fc are respectively intraperitoneally injected. After administration for 2 h, 1.5 g/kg glucose is intraperitoneally injected to each mouse, blood is taken via caudal vein, and blood glucose concentrations in −120, 0, 15, 30, 45, 60, 90, 120 and 180 min are recorded. During the test, animals are normally dieted and supplied with water.
# Area under the curve is further applied for analysis.
# [3] = cited from earlier work
# [4] = 0 h (before administration), 10 nmol/kg ip, n=8, mean ± SEM
# [5] = 1 h after administration, 10 nmol/kg ip
# [6] = 2 h after administration, 10 nmol/kg ip
# [7] = 4 h after administration, 10 nmol/kg ip
# [8] = 8 h after administration, 10 nmol/kg ip
# [9] = 12 h after administration, 10 nmol/kg ip
# [10] = 24 h after administration, 10 nmol/kg ip
# [11] = 36 h after administration, 10 nmol/kg ip
# [12] = 48 h after administration, 10 nmol/kg ip
# [13] = 60 h after administration, 10 nmol/kg ip
# [14] = 72 h after administration, 10 nmol/kg ip
# [15] = 96 h after administration, 10 nmol/kg ip
# [16] = 120 h after administration, 10 nmol/kg ip
# [17] = Ex-4 and EX-mhIgG1Fc 10 nmol/kg, EX-L21K-mhIgG1Fc 5-20 nmol/kg, ip
# [18] = 10 nmol/kg ip 120 min before 1.5 g/kg glucose ip
substance,measurement,setting,value
"EX-L21K-mhIgG1Fc: fusion protein of Exendin-4 mutant EX-L21K, Gly-rich linker peptide, optimally mutated human IgG1 hinge region and constant regions CH2 and CH3; SEQ ID NO: 11",Blood glucose,"[1]; 0 h (before administration), 5 nmol/kg ip, n=8, mean ± SEM",23.04 ± 1.23 mM and 23.04 mM
same,Blood glucose,[1]; [4],22.41 ± 1.51 mM and 22.41 mM
same,Blood glucose,"[1]; 0 h (before administration), 20 nmol/kg ip, n=8, mean ± SEM",24.99 ± 1.43 mM and 24.99 mM
same,Time after administration to which hypoglycemic effect lasts,"[1]; 5 nmol/kg ip, P<0.01 vs model group",72 h
same,Blood glucose AUC0-24 h,"[1]; 5 nmol/kg ip, n=8, mean ± SEM",296.69 ± 34.39 mM·h
same,Time after administration to which hypoglycemic effect lasts,[1]; 10 nmol/kg ip,≥ 96 h
same,Blood glucose AUC0-24 h,"[1]; 10 nmol/kg ip, n=8, mean ± SEM",237.34 ± 16.87 mM·h
same,Time after administration to which hypoglycemic effect lasts,"[1]; 20 nmol/kg ip, P<0.0001 vs model group",≥ 96 h
same,Blood glucose AUC0-24 h,"[1]; 20 nmol/kg ip, n=8, mean ± SEM",230.80 ± 20.09 mM·h
same,Time after administration to which hypoglycemic effect lasts,[1]; 5-20 nmol/kg ip,96 h
same,Blood glucose,"[1]; 1 h after administration, 5 nmol/kg ip",15.18 mM
same,Blood glucose,[1]; [5],15.2 mM
same,Blood glucose,"[1]; 1 h after administration, 20 nmol/kg ip",14.98 mM
same,Blood glucose,"[1]; 2 h after administration, 5 nmol/kg ip",11.28 mM
same,Blood glucose,[1]; [6],14.3 mM
same,Blood glucose,"[1]; 2 h after administration, 20 nmol/kg ip",12.46 mM
same,Blood glucose,"[1]; 4 h after administration, 5 nmol/kg ip",9.16 mM
same,Blood glucose,[1]; [7],8.48 mM
same,Blood glucose,"[1]; 4 h after administration, 20 nmol/kg ip",9.54 mM
same,Blood glucose,"[1]; 8 h after administration, 5 nmol/kg ip",9.91 mM
same,Blood glucose,[1]; [8],8.01 mM
same,Blood glucose,"[1]; 8 h after administration, 20 nmol/kg ip",8.73 mM
same,Blood glucose,"[1]; 12 h after administration, 5 nmol/kg ip",13.06 mM
same,Blood glucose,[1]; [9],10.13 mM
same,Blood glucose,"[1]; 12 h after administration, 20 nmol/kg ip",53 mM
same,Blood glucose,"[1]; 24 h after administration, 5 nmol/kg ip",13.58 mM
same,Blood glucose,[1]; [10],8.5 mM
same,Blood glucose,"[1]; 24 h after administration, 20 nmol/kg ip",7.49 mM
same,Blood glucose,"[1]; 36 h after administration, 5 nmol/kg ip",17.34 mM
same,Blood glucose,[1]; [11],12.9 mM
same,Blood glucose,"[1]; 36 h after administration, 20 nmol/kg ip",11.95 mM
same,Blood glucose,"[1]; 48 h after administration, 5 nmol/kg ip",16.46 mM
same,Blood glucose,[1]; [12],12.96 mM
same,Blood glucose,"[1]; 48 h after administration, 20 nmol/kg ip",12.2 mM
same,Blood glucose,"[1]; 60 h after administration, 5 nmol/kg ip",22.39 mM
same,Blood glucose,[1]; [13],21.36 mM
same,Blood glucose,"[1]; 60 h after administration, 20 nmol/kg ip",21.5 mM
same,Blood glucose,"[1]; 72 h after administration, 5 nmol/kg ip",18.85 mM
same,Blood glucose,[1]; [14],17.4 mM
same,Blood glucose,"[1]; 72 h after administration, 20 nmol/kg ip",14.1 mM
same,Blood glucose,"[1]; 96 h after administration, 5 nmol/kg ip",18.71 mM
same,Blood glucose,[1]; [15],17.33 mM
same,Blood glucose,"[1]; 96 h after administration, 20 nmol/kg ip",14.46 mM
same,Blood glucose,"[1]; 120 h after administration, 5 nmol/kg ip",23.35 mM
same,Blood glucose,[1]; [16],22.96 mM
same,Blood glucose,"[1]; 120 h after administration, 20 nmol/kg ip",22.76 mM
same,Blood glucose AUC0-72 h compared with model group,[1]; [17],significantly reduced
same,Blood glucose AUC0-120 h compared with model group,[1]; [17],significantly reduced
same,IPGTT glucose AUC0-180 min,[2]; 5 nmol/kg ip 120 min before 1.5 g/kg glucose ip,2338 ± 181.2 mM·min
same,IPGTT glucose AUC0-180 min,[2]; [18],2035 ± 169.6 mM·min
same,IPGTT glucose AUC0-180 min,[2]; 20 nmol/kg ip 120 min before 1.5 g/kg glucose ip,2082 ± 119.9 mM·min
same,Fasting blood glucose vs model group,[2],significantly reduced
"Exendin-4 [Ex-4, reference compound]",Blood glucose,[1]; [4],24.53 ± 1.20 mM and 24.53 mM
same,Blood glucose AUC0-24 h,"[1]; 10 nmol/kg ip, n=8, mean ± SEM",374.46 ± 6.20 mM·h
same,Blood glucose,[1]; [5],10.63 mM
same,Blood glucose,[1]; [6],10.79 mM
same,Blood glucose,[1]; [7],10.71 mM
same,Blood glucose,[1]; [8],15.31 mM
same,Blood glucose,[1]; [9],24.43 mM
same,Blood glucose,[1]; [10],20.48 mM
same,Blood glucose,[1]; [11],26.59 mM
same,Blood glucose,[1]; [12],24.76 mM
same,Blood glucose,[1]; [13],27.19 mM
same,Blood glucose,[1]; [14],25.34 mM
same,Blood glucose,[1]; [15],23.68 mM
same,Blood glucose,[1]; [16],24.83 mM
same,Blood glucose AUC0-72 h compared with model group,[1]; [17],no significant change
same,Blood glucose AUC0-120 h compared with model group,[1]; [17],no significant change
same,Time after administration at which hypoglycemic effect is exhibited,[1]; [17],1 h
same,IPGTT glucose AUC0-180 min,[2]; [18],2058 ± 109.5 mM·min
same,Fasting blood glucose vs model group,[2],significantly reduced
same,in-vivo half-life period,[3],3.3˜4 hours
